Patent publication US10053463B2 (Janssen Pharmaceutica NV, priority 2013, dated 2018)

These compounds were tested against P2X7 (Homo sapiens (Human), UniProt Q99572) (assay: P2X7 antagonism in human peripheral blood mononuclear cells (PBMCs), IL-1β release). Conditions: P2X7; Table 3 (additional runs); 10 μM compound; read-out: PBMC 10 μM (% control).
Type: cell-based
Protocol: P2X7 Antagonism in Human Peripheral Blood Mononuclear Cells (PBMCs) and Human Whole Blood.
Human blood was collected using a blood donor program. PBMCs were isolated from blood using a Ficoll density gradient technique. Briefly, blood was laid on Ficoll solution and centrifuged at RT for 20 minutes at 2000 rpm. The buffy layer (between red blood cells and plasma) was carefully collected by aspiration, washed with PBS and centrifuged again at 1500 rpm for 15 minutes. The resulting cell pellet was washed and plated on 96 well-plates for experiments. For the Human Whole Blood experiments, 150 μl of human blood was platted on 96 well-plates. Lipopolysaccharide (LPS) (30 ng/ml) was added to each well and incubated for 1 hour. Test compounds were then added and incubated for 30 minutes. The P2X7 agonist, 2′(3′)-O-(4-benzoylbenzoyl) adenosine 5′-triphosphate (Bz-ATP) was then added at a final concentration of 0.5 mM (PBMC) or 1 mM (blood). Cells were incubated for an additional 1.5 hours. At that point, supernatant was collected and stored for IL-1β assay using manufacturer's protocol for enzyme-linked immunosorbent assay (ELISA). Data was expressed as percent control, where control is defined as the difference in IL-1β release in LPS+Bz-ATP samples and LPS only samples. Data was plotted as response (% control) versus concentration to generate IC50 values. […] Data are analyzed and graphed on Graphpad Prism 5. For analysis, each concentration point is averaged from triplicate values and the averaged values are plotted on Graphpad Prism.

P2X7, sequence (Q99572 whole entry): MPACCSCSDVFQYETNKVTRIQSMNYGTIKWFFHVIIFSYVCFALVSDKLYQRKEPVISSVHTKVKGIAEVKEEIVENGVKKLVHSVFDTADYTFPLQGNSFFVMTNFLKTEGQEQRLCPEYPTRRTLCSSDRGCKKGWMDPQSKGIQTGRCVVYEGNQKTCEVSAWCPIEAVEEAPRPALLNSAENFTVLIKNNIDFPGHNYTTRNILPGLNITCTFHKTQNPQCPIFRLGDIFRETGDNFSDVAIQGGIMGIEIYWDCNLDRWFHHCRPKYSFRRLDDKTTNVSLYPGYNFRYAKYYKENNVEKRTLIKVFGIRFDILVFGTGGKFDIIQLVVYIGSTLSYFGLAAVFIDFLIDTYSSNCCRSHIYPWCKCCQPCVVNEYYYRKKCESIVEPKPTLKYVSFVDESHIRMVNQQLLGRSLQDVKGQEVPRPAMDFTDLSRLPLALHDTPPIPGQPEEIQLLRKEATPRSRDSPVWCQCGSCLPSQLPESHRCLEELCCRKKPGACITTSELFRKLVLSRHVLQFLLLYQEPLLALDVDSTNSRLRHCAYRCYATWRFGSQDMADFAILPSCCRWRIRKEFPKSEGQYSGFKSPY

SMILES | remaining activity at 10 µM [%]
C[C@H]1Cn2c(nnc2C2CCOCC2)C(=O)N1Cc1cccc(C(F)(F)F)c1Cl [Example 53, (6S)-7-[2-Chloro-3-(trifluoromethyl)benzyl]-6-methyl-3-(tetrahydro-2H-pyran-4-yl)-6,7-dihydro[1,2,4]triazolo[4,3-a]pyrazin-8(5H)-one] | 33.2
C[C@H]1Cn2c(nnc2-c2nccc(C(F)(F)F)n2)C(=O)N1Cc1cccc(C(F)(F)F)c1Cl [Example 54, (6S)-7-[2-chloro-3-(trifluoromethyl)benzyl]-6-methyl-3-[4-(trifluoromethyl)pyrimidin-2-yl]-6,7-dihydro[1,2,4]triazolo[4,3-a]pyrazin-8(5H)-one] | 4.2
C[C@H]1Cn2c(nnc2-c2cccc(C(F)(F)F)n2)C(=O)N1Cc1cccc(C(F)(F)F)c1Cl [Example 55, (6S)-7-[2-Chloro-3-(trifluoromethyl)benzyl]-6-methyl-3-[6-(trifluoromethyl)pyridin-2-yl]-6,7-dihydro[1,2,4]triazolo[4,3-a]pyrazin-8(5H)-one] | 8.5
C[C@H]1Cn2c(nnc2-c2ccc(Cl)cn2)C(=O)N1Cc1cccc(C(F)(F)F)c1Cl [Example 56, (6S)-3-(5-Chloropyridin-2-yl)-7-[2-chloro-3-(trifluoromethyl)benzyl]-6-methyl-6,7-dihydro[1,2,4]triazolo[4,3-a]pyrazin-8(5H)-one] | 11.2
Cc1cncc(-c2nnc3n2C[C@H](C)N(Cc2cccc(C(F)(F)F)c2Cl)C3=O)c1 [Example 57, (6S)-7-[2-Chloro-3-(trifluoromethyl)benzyl]-6-methyl-3-(5-methylpyridin-3-yl)-6,7-dihydro[1,2,4]triazolo[4,3-a]pyrazin-8(5H)-one] | 0.1
C[C@H]1Cn2c(nnc2C2CCN(C(=O)OC(C)(C)C)C2)C(=O)N1Cc1cccc(C(F)(F)F)c1Cl (stereo partly drawn) [Example 58, (6S)-tert-Butyl3-{7-[2-chloro-3-(trifluoromethyl)benzyl]-6-methyl-8-oxo-5,6,7,8-tetrahydro[1,2,4]triazolo[4,3-a]pyrazin-3-yl}pyrrolidine-1-carboxylate] | 24.6
C[C@H]1Cn2c(nnc2C2CCCNC2)C(=O)N1Cc1cccc(C(F)(F)F)c1Cl (stereo partly drawn) [Example 60, (6S)-7-[2-Chloro-3-(trifluoromethyl)benzyl]-6-methyl-3-piperidin-3-yl-6,7-dihydro[1,2,4]triazolo[4,3-a]pyrazin-8(5H)-one] | 17.1
CC[C@H]1Cn2c(nnc2-c2cnccn2)C(=O)N1Cc1cccc(C(F)(F)F)c1Cl [Example 71, (6S)-7-[2-Chloro-3-(trifluoromethyl)benzyl]-6-ethyl-3-pyrazin-2-yl-6,7-dihydro[1,2,4]triazolo[4,3-a]pyrazin-8(5H)-one] | 1.2
CC[C@H]1Cn2c(nnc2-c2ncccn2)C(=O)N1Cc1cccc(C(F)(F)F)c1Cl [Example 72, (6S)-7-[2-Chloro-3-(trifluoromethyl)benzyl]-6-ethyl-3-pyrimidin-2-yl-6,7-dihydro[1,2,4]triazolo[4,3-a]pyrazin-8(5H)-one] | 1.9
CC[C@H]1Cn2c(nnc2-c2cccnc2)C(=O)N1Cc1cccc(C(F)(F)F)c1Cl [Example 73, (6S)-7-[2-Chloro-3-(trifluoromethyl)benzyl]-6-ethyl-3-pyridin-3-yl-6,7-dihydro[1,2,4]triazolo[4,3-a]pyrazin-8(5H)-one] | 6.2
CC[C@H]1Cn2c(nnc2-c2cc[nH]n2)C(=O)N1Cc1cccc(C(F)(F)F)c1Cl [Example 74, (6S)-7-[2-Chloro-3-(trifluoromethyl)benzyl]-6-ethyl-3-(1H-pyrazol-3-yl)-6,7-dihydro[1,2,4]triazolo[4,3-a]pyrazin-8(5H)-one] | 0.3
CC[C@H]1Cn2c(nnc2-c2ncc(F)cn2)C(=O)N1Cc1cccc(C(F)(F)F)c1Cl [Example 75, (6S)-7-[2-Chloro-3-(trifluoromethyl)benzyl]-6-ethyl-3-(5-fluoropyrimidin-2-yl)-6,7-dihydro[1,2,4]triazolo[4,3-a]pyrazin-8(5H)-one] | 22.6
CC[C@H]1Cn2c(nnc2-c2ccc(F)cn2)C(=O)N1Cc1cccc(C(F)(F)F)c1Cl [Example 76, (6S)-7-[2-Chloro-3-(trifluoromethyl)benzyl]-6-ethyl-3-(5-fluoropyridin-2-yl)-6,7-dihydro[1,2,4]triazolo[4,3-a]pyrazin-8(5H)-one] | 16.9
C[C@H]1Cn2c(nnc2-c2cnccn2)C(=O)N1 [Example 77, (6S)-6-Methyl-3-pyrazin-2-yl-6,7-dihydro[1,2,4]triazolo[4,3-a]pyrazin-8(5H)-one] | 105
C[C@H]1Cn2c(nnc2-c2cnccn2)C(=O)N1Cc1ccc(F)cc1Cl [Example 78, (6S)-7-(2-Chloro-4-fluorobenzyl)-6-methyl-3-pyrazin-2-yl-6,7-dihydro[1,2,4]triazolo[4,3-a]pyrazin-8(5H)-one] | 8.3
C[C@H]1Cn2c(nnc2-c2cnccn2)C(=O)N1Cc1ccccc1 [Example 79, (6S)-7-Benzyl-6-methyl-3-pyrazin-2-yl-6,7-dihydro[1,2,4]triazolo[4,3-a]pyrazin-8(5H)-one] | 15.6
C[C@H]1Cn2c(nnc2-c2cnccn2)C(=O)N1Cc1ccccc1Cl [Example 80, (6S)-7-(2-Chlorobenzyl)-6-methyl-3-pyrazin-2-yl-6,7-dihydro[1,2,4]triazolo[4,3-a]pyrazin-8(5H)-one] | 8.4
C[C@H]1Cn2c(nnc2-c2cnccn2)C(=O)N1Cc1ccc(S(C)(=O)=O)cc1Cl [Example 81, (6S)-7-[2-Chloro-4-(methylsulfonyl)benzyl]-6-methyl-3-pyrazin-2-yl-6,7-dihydro[1,2,4]triazolo[4,3-a]pyrazin-8(5H)-one] | 170
C[C@H]1Cn2c(nnc2-c2cnccn2)C(=O)N1Cc1ccc(Cl)cc1S(C)(=O)=O [Example 82, (6S)-7-[4-Chloro-2-(methylsulfonyl)benzyl]-6-methyl-3-pyrazin-2-yl-6,7-dihydro[1,2,4]triazolo[4,3-a]pyrazin-8(5H)-one] | 22.2
C[C@H]1Cn2c(nnc2-c2cnccn2)C(=O)N1Cc1ccccc1OC(F)(F)F [Example 83, (6S)-6-Methyl-3-pyrazin-2-yl-7-[2-(trifluoromethoxy)benzyl]-6,7-dihydro[1,2,4]triazolo[4,3-a]pyrazin-8(5H)-one] | 15.6
C[C@H]1Cn2c(nnc2-c2cnccn2)C(=O)N1Cc1cc2c(cc1Cl)OCO2 [Example 84, (6S)-7-[(6-Chloro-1,3-benzodioxol-5-yl)methyl]-6-methyl-3-pyrazin-2-yl-6,7-dihydro[1,2,4]triazolo[4,3-a]pyrazin-8(5H)-one] | 25.9
Cc1c(CN2C(=O)c3nnc(-c4cnccn4)n3C[C@@H]2C)cccc1C(F)(F)F [Example 85, (6S)-6-Methyl-7-[2-methyl-3-(trifluoromethyl)benzyl]-3-pyrazin-2-yl-6,7-dihydro[1,2,4]triazolo[4,3-a]pyrazin-8(5H)-one] | 16.6
C[C@H]1Cn2c(nnc2-c2cnccn2)C(=O)N1Cc1c(Cl)cccc1Cl [Example 86, (6S)-7-(2,6-Dichlorobenzyl)-6-methyl-3-pyrazin-2-yl-6,7-dihydro[1,2,4]triazolo[4,3-a]pyrazin-8(5H)-one] | 28.3
Cc1cccc(C)c1CN1C(=O)c2nnc(-c3cnccn3)n2C[C@@H]1C [Example 87, (6S)-7-(2,6-Dimethylbenzyl)-6-methyl-3-pyrazin-2-yl-6,7-dihydro[1,2,4]triazolo[4,3-a]pyrazin-8(5H)-one] | 27
C[C@H]1Cn2c(nnc2-c2cnccn2)C(=O)N1Cc1cccc(C(F)(F)F)c1 [Example 88, (6S)-6-Methyl-3-pyrazin-2-yl-7-[3-(trifluoromethyl)benzyl]-6,7-dihydro[1,2,4]triazolo[4,3-a]pyrazin-8(5H)-one] | 29.9
C[C@H]1Cn2c(nnc2-c2cnccn2)C(=O)N1Cc1ccccc1[N+](=O)[O-] [Example 89, (6S)-6-Methyl-7-(2-nitrobenzyl)-3-pyrazin-2-yl-6,7-dihydro[1,2,4]triazolo[4,3-a]pyrazin-8(5H)-one] | 30.7
C[C@H]1Cn2c(nnc2-c2cnccn2)C(=O)N1Cc1cc([N+](=O)[O-])ccc1Cl [Example 90, (6S)-7-(2-Chloro-5-nitrobenzyl)-6-methyl-3-pyrazin-2-yl-6,7-dihydro[1,2,4]triazolo[4,3-a]pyrazin-8(5H)-one] | 24.4
C[C@H]1Cn2c(nnc2-c2cnccn2)C(=O)N1Cc1cc(N)ccc1Cl [Example 91, (6S)-7-(5-Amino-2-chlorobenzyl)-6-methyl-3-pyrazin-2-yl-6,7-dihydro[1,2,4]triazolo[4,3-a]pyrazin-8(5H)-one] | 11.6
CC(c1ccccc1)N1C(=O)c2nnc(-c3cnccn3)n2C[C@@H]1C (stereo partly drawn) [Example 92, (6S)-6-Methyl-7-(1-phenylethyl)-3-pyrazin-2-yl-6,7-dihydro[1,2,4]triazolo[4,3-a]pyrazin-8(5H)-one] | -1

Same assay, conditions: Table 2; 10 μM compound; IL-1β release, LPS + 0.5 mM Bz-ATP

SMILES | PBMC 10 μM (% control)
CC[C@H]1Cn2c(nnc2-c2cnccn2)C(=O)N1Cc1cccc(C(F)(F)F)c1Cl [Example 71, (6S)-7-[2-Chloro-3-(trifluoromethyl)benzyl]-6-ethyl-3-pyrazin-2-yl-6,7-dihydro[1,2,4]triazolo[4,3-a]pyrazin-8(5H)-one] | 1.2
